Like-named read-outs stand apart in the source and are kept apart here.
Tests used:
CYP2C19 = CYP2C19 (Homo sapiens, UniProt P33261); test: Inhibition of CYP2C19 (S-mephenytoin) in pooled human liver microsomes
Method: (§1) The final reaction volume was 150 µL, and the reaction was carried out in a 96-well deep-well cell plate made of polypropylene. The reaction was conducted at a temperature of 37 °C. To ensure that the reaction time was within the linear range of the metabolic rate and to avoid data distortion caused by substrate depletion or product feedback inhibition, the reaction time for each substrate varied as follows: the incubation time for detecting CYP3A4 enzyme activity was 5 min; the incubation time for detecting CYP2B6, CYP2C8, CYP2C9, and CYP2D6 enzyme activities was 10 min each; the incubation time for detecting CYP1A2 and CYP2C19 enzyme activities was 30 min each.
(§2) The AB SCIEX 4000/5000 HPLC-MS/MS system, integrated with the HTS PAL autosampler (CTC Analytics AG, Basel, Switzerland) and Shimadzu LC 20 series HPLC (Shimadzu Corporation, Kyoto, Japan), was used for analysis. […]
(§3) In accordance with the DDI guidelines from the NMPA and the US FDA, the inhibition of CYP1A2, 2B6, 2C8, 2C9, 2C19, 2D6, and 3A4 activity by the test article was assessed. The inhibitory effect was determined by measuring the reduction in metabolite formation of respective probe substrates, expressed as relative activity compared to the negative control (NC), using the following formula: Relative activity (% of NC) = (formation of metabolites in test or PC/formation in NC) × 100. […]

UGT1A1 [1] = target: T1, UGT1A1 (Homo sapiens, UniProt P22309); test: Inhibition of UGT1A1-catalyzed beta-estradiol glucuronidation, human recombinant UGT
T1 sequence (P22309 26-533): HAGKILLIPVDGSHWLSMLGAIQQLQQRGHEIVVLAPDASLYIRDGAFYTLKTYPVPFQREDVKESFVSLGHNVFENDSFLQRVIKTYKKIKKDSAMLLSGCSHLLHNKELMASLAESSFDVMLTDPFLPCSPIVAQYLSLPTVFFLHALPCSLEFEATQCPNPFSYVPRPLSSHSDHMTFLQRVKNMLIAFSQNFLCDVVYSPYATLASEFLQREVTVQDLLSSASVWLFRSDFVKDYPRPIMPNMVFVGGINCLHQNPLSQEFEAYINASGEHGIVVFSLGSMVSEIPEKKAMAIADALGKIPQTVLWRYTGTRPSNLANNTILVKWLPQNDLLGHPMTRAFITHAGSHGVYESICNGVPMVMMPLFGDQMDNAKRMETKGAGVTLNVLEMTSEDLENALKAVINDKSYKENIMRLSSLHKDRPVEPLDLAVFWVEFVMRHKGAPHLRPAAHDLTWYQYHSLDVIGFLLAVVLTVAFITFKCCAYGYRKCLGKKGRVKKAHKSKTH
Method: (§4) These enzymes were then incubated with each compound (Table 1). Subsequently, the corresponding substrates for each UGT isoenzyme were added. The inhibitory effects of the respective products were evaluated by measuring their generation. […] Each incubation mixture was prepared in triplicate, containing 0.25 mg/mL recombinant enzyme, 5 mM UDPGA, and 10 mM propylthiouracil, among other conditions.

CYP3A4 = CYP3A4 (Homo sapiens, UniProt P08684); test: Inhibition of CYP3A4 (testosterone, midazolam) in pooled human liver microsomes
Method: (§5) The virological tests for AIDS, hepatitis B, and hepatitis C of the donors were negative. The final reaction volume was 150 µL, and the reaction was carried out in a 96-well deep-well cell plate made of polypropylene. The reaction was conducted at a temperature of 37 °C. […]
(§6) The AB SCIEX 4000/5000 HPLC-MS/MS system, integrated with the HTS PAL autosampler (CTC Analytics AG, Basel, Switzerland) and Shimadzu LC 20 series HPLC (Shimadzu Corporation, Kyoto, Japan), was used for analysis. […] Quantification was achieved by calculating the area under the curve (AUC) for each MRM transition. […]
(§7) In accordance with the DDI guidelines from the NMPA and the US FDA, the inhibition of CYP1A2, 2B6, 2C8, 2C9, 2C19, 2D6, and 3A4 activity by the test article was assessed. The inhibitory effect was determined by measuring the reduction in metabolite formation of respective probe substrates, expressed as relative activity compared to the negative control (NC), using the following formula: Relative activity (% of NC) = (formation of metabolites in test or PC/formation in NC) × 100. […] Data processing: When the calculated value is less than 100, three significant digits are retained. When the calculated value is greater than or equal to 100, only the integer part is retained.

CYP2D6 = CYP2D6 (Homo sapiens, UniProt P10635); test: Inhibition of CYP2D6 (dextromethorphan) in pooled human liver microsomes
Method: as §1, §2, §3

UGT1A4 = target: T2, UGT1A4 (Homo sapiens, UniProt P22310); test: Inhibition of UGT1A4-catalyzed trifluoperazine glucuronidation, human recombinant UGT
T2 sequence (P22310 29-534): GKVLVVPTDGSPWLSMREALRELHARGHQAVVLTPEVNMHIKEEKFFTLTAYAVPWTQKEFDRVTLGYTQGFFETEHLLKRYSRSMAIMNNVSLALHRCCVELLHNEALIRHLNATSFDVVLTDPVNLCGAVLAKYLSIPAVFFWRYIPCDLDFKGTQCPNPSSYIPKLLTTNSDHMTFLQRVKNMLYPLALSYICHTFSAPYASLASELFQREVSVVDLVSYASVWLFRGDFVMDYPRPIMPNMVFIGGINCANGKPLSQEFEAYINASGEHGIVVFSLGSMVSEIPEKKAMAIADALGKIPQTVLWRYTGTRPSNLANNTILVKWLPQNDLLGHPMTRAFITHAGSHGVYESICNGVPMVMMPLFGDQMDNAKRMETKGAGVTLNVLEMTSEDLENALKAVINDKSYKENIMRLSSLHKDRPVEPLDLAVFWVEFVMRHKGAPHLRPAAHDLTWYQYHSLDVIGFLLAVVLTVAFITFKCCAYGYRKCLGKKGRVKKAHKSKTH
Method: as §4

CYP2C9 = CYP2C9 (Homo sapiens, UniProt P11712); test: Inhibition of CYP2C9 (diclofenac) in pooled human liver microsomes
Method: as §5, §6, §7

CYP1A2 = target: T3, CYP1A2 (Homo sapiens, UniProt P05177); test: Inhibition of CYP1A2-catalyzed phenacetin metabolism in pooled human liver microsomes
T3 sequence (P05177 1-516): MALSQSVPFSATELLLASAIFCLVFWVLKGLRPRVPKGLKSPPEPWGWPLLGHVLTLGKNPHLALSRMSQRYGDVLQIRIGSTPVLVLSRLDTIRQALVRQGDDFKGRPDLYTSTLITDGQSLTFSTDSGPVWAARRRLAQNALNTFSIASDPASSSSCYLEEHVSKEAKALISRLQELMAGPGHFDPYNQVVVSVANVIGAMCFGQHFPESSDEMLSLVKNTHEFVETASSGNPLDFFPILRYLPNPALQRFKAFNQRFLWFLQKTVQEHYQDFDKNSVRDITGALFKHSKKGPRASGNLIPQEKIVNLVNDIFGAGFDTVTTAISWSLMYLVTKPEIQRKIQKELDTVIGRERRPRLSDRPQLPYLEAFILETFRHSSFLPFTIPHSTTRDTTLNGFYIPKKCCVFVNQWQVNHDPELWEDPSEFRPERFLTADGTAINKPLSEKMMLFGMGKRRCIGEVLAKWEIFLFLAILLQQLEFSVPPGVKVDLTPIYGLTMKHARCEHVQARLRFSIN
Method: as §5, §6, §7

CYP2B6 = target: T4, CYP2B6 (Homo sapiens, UniProt P20813); test: Inhibition of CYP2B6 (bupropion) in pooled human liver microsomes
T4 sequence (P20813 1-491): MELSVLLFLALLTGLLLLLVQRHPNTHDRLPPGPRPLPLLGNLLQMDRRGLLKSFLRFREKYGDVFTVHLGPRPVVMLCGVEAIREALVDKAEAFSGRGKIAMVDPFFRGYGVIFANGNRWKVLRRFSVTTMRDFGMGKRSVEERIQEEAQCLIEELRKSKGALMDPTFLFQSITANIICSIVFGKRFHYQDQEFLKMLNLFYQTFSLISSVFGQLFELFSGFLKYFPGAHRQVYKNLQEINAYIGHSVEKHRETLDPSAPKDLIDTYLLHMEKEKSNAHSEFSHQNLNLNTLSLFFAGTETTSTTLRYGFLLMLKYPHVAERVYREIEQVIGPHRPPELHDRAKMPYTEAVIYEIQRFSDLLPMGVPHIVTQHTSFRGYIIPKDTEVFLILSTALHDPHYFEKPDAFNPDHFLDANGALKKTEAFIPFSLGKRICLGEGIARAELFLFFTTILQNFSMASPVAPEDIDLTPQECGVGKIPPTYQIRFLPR
Method: as §5, §6, §7

UGT1A3 = target: T5, UGT1A3 (Homo sapiens, UniProt P35503); test: Inhibition of UGT1A3-mediated beta-estradiol glucuronidation, human recombinant UGT
T5 sequence (P35503 29-534): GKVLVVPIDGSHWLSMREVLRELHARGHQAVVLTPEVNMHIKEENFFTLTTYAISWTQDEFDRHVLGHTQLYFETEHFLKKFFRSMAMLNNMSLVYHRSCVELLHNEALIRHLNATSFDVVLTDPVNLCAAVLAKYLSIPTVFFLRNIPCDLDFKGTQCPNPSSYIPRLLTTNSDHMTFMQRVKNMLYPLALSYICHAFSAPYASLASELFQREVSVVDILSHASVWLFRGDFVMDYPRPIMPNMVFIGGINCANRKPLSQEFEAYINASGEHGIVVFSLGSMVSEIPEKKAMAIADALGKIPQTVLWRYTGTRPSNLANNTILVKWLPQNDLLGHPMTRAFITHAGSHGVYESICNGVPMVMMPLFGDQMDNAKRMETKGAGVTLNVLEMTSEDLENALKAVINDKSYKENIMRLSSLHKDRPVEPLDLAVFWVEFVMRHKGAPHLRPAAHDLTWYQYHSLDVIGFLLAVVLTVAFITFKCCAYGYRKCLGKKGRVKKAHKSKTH
Method: as §4

CYP2C8 = target: T6, CYP2C8 (Homo sapiens, UniProt P10632); test: Inhibition of CYP2C8-mediated amodiaquine metabolism in pooled human liver microsomes
T6 sequence (P10632 1-490): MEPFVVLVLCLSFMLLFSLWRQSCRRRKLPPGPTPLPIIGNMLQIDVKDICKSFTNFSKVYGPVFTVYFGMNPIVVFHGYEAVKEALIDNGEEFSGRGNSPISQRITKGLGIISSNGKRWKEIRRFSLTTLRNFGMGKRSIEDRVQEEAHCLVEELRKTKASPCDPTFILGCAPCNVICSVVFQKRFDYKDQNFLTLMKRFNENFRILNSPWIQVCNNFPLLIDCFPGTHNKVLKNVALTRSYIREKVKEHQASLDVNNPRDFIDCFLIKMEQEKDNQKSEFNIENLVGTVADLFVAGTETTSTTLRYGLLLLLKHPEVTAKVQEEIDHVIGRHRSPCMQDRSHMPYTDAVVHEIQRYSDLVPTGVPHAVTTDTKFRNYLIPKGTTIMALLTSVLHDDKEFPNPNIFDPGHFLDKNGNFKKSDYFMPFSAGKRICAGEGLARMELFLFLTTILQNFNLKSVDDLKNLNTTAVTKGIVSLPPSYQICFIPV
Method: as §5, §6, §7

UGT2B15 = target: T7, UGT2B15 (Homo sapiens, UniProt P54855); test: Inhibition of UGT2B15-catalyzed 4-trifluoromethyl-7-hydroxycoumarin glucuronidation, human recombinant UGT
T7 sequence (P54855 24-530): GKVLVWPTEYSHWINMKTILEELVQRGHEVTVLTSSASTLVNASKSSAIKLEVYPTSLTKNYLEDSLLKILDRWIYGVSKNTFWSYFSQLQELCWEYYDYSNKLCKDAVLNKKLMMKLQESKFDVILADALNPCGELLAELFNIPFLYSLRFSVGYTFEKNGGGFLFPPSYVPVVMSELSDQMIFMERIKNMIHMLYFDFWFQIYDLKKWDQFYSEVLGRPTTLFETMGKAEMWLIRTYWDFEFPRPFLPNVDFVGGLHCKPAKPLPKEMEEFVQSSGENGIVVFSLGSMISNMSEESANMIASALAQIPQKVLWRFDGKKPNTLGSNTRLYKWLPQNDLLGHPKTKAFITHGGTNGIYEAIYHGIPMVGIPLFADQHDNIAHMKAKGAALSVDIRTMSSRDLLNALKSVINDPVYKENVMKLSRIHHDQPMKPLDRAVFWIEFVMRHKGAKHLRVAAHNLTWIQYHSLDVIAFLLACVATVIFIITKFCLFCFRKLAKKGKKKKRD
Method: as §4

UGT1A1 [2] = details: cited from earlier work
UGT1A9 = details: cited from earlier work

CYP3A4, sequence (P08684 whole entry): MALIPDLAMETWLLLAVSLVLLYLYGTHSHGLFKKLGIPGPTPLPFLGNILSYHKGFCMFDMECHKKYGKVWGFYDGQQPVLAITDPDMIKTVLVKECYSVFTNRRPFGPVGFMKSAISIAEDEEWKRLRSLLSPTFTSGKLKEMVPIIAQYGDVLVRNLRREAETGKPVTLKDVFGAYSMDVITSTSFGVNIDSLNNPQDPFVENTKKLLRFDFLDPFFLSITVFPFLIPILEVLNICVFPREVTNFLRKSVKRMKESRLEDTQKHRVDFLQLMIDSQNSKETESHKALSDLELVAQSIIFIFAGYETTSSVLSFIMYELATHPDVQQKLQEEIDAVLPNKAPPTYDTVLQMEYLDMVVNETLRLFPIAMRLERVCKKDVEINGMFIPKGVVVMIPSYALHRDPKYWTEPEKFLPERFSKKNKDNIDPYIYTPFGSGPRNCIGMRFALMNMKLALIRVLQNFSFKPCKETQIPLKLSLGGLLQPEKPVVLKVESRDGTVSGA
CYP2C9, sequence (P11712 whole entry): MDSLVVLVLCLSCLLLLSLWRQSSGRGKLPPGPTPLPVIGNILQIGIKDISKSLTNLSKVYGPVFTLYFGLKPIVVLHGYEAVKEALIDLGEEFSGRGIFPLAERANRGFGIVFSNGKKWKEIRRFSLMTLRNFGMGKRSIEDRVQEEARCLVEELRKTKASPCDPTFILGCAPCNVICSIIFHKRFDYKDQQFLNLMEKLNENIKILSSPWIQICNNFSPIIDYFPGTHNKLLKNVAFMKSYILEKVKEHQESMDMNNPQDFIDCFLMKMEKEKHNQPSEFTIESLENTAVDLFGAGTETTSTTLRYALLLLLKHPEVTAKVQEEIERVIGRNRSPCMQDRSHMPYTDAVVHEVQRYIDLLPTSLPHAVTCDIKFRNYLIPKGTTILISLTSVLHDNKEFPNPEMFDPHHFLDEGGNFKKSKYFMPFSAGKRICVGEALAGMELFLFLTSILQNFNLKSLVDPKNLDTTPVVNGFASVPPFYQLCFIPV
CYP2C19, sequence (P33261 whole entry): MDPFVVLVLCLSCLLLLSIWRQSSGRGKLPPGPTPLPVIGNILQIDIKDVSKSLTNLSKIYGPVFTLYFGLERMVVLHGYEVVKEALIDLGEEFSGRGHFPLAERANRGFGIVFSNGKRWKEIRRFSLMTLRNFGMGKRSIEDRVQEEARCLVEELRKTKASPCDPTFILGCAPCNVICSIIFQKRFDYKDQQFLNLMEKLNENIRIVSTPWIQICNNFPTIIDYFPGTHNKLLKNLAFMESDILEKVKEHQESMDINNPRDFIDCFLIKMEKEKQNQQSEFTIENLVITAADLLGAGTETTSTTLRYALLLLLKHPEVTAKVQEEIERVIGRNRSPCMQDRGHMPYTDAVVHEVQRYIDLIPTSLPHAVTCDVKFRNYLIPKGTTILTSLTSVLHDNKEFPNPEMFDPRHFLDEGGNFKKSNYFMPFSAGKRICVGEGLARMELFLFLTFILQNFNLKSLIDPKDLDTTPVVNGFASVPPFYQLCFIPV
CYP2D6, sequence (P10635 whole entry): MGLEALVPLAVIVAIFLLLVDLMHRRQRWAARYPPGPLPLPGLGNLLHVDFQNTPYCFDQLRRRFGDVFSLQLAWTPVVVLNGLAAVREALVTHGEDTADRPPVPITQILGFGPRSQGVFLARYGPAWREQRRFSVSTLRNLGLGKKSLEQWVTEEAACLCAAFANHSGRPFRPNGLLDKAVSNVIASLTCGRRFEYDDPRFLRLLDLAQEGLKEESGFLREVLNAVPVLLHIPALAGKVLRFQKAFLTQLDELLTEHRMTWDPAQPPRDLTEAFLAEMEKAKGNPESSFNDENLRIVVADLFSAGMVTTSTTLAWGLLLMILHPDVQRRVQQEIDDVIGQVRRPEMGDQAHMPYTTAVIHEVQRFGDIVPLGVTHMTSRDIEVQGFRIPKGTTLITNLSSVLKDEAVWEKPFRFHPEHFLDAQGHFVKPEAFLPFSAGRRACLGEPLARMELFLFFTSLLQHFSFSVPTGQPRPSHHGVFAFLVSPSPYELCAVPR

| Compound | IC50 (CYP2C19) [µM] | IC50 (UGT1A1 [1]) [µM] | IC50 (CYP3A4) [µM] | IC50 (CYP3A4; read-out: IC50, CYP3A4-M, pooled HLMs, probe midazolam) [µM] | IC50 (CYP2D6) [µM] | IC50 (UGT1A4) [µM] | IC50 (CYP2C9) [µM] | IC50 (CYP1A2) [µM] | IC50 (CYP2B6) [µM] | IC50 (UGT1A3) [µM] | IC50 (CYP2C8) [µM] | IC50 (UGT2B15) [µM] | Inhibition of UGT1A1 (in words) (UGT1A1 [2]) | Inhibition of UGT1A9 (in words) (UGT1A9) |
| --- | --- | --- | --- | --- | --- | --- | --- | --- | --- | --- | --- | --- | --- | --- |
| O=c1c(O)cc([C@H]2Oc3cc(O)cc(O)c3C[C@H]2O)cc2c([C@H]3Oc4cc(O)cc(O)c4C[C@H]3O)cc(O)c(O)c12 [Theaflavin, theaflavin] | > 20 | 3.89 | > 20 | > 20 | > 20 | > 20 | > 20 | > 20 | > 20 | > 20 | > 20 | > 20 |  |  |
| O=c1c(O)c(-c2ccc(O)c(O)c2)oc2cc(O)cc(O)c12 [quercetin] |  |  |  |  |  |  |  |  |  |  |  |  | strong inhibition |  |
| (-)-epigallocatechin-3-gallate [EGCG] |  |  |  |  |  |  |  |  |  |  |  |  | moderately inhibit | moderately inhibit |
